Laboratory results reported in US7119094B1, “Substituted polycyclic aryl and heteroarpyl pyrazinones useful for selective inhibition of the coagulation cascade” (Warner-Lambert Company, priority 2000, dated 2006).

How the values were obtained:
Human thrombin [1] = target: T1, Human thrombin (Homo sapiens, UniProt P00734); assay: biochemical
Human thrombin [2] = target: T1, Human thrombin
[3] = target: T2, Trypsin (type 1× from porcine pancreas) (Sus scrofa, UniProt P00761); assay: Trypsin Assay; assay type: biochemical
T2 construct: Trypsin (5 ug/ml; type 1× from porcine pancreas); purchased Sigma, St. Louis Mo; host or cells: porcine pancreas
T2 sequence (P00761 9-231): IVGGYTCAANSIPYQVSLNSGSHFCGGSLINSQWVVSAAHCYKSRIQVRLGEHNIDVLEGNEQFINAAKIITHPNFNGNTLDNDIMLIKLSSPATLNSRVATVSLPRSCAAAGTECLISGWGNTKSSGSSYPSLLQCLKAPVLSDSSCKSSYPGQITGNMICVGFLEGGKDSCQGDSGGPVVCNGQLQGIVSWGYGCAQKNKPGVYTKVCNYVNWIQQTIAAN

[4] = target: T3, recombinant soluble tissue factor and recombinant human factor VIIa (TF-VIIa) (Homo sapiens, UniProt P08709); assay: TF-VIIa Assay; assay type: biochemical
T3 construct: conversion of coagulation factor VII to VIIa by Xa; purchased American Diagnostica, Greenwich Conn; host or cells: factor VIIa purchased; soluble TF made in house in E. coli
T3 sequence (P08709 213-466 limits assumed): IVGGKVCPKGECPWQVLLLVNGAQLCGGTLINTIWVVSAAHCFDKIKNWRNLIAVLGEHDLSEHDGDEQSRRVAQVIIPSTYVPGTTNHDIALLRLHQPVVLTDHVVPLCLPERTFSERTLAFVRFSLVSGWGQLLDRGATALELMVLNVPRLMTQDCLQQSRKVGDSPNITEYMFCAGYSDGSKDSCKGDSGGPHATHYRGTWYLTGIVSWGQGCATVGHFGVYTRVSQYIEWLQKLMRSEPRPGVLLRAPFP
T3 sequence (P08709 61-212 limits assumed): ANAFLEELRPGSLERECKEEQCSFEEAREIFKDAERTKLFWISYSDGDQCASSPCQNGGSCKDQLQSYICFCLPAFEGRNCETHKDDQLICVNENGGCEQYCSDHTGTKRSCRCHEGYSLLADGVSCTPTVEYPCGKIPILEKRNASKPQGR
T3 sequence (P13726 33-251 partner limits assumed): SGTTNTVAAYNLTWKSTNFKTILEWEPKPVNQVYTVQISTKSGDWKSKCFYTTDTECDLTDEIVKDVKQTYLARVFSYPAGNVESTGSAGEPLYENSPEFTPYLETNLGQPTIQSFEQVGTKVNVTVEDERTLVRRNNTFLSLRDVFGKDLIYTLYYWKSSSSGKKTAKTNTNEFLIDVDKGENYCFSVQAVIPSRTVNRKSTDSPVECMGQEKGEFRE

IC50 (Human thrombin [1]) [µM] | SMILES | % Inhibition Thrombin II (100 νM) (Human thrombin [2]) [%] | % Inhibition Trpysin II (100 νM) [3] [%] | % Inhibition TF-VIIa (100 νM) [4] [%]
> 30 | N=C(N)c1ccc(C(=O)NCCn2c(-c3cccc(N)c3)c(Cl)nc(NC3CCC3)c2=O)cc1 [Example 136] | – | – | –
– | O=C(Cn1c(-c2ccc(-c3ccccc3)cc2)c(Cl)nc(NCc2ccncc2)c1=O)NCCc1ccncc1 [Example E-0056] | 0 | 0 | 0
